Data: patent US20120238487A1, “POLYMER COMPOSITION USEFUL AS A PHARMACEUTICAL CARRIER” (ROBERT GORDON UNIVERSITY, priority 2009, published 2012)
Values after ≈ are worked out from the molar mass of the structure shown. Read-outs that look alike come from different tables or passages of the source.

Assays:
[1] = type: physicochemical
Method: Polymer solutions of 1 […] 6 mgmL^-1 were made up in deionised water and probe sonicated for 10 mins to ensure homogeneity. […] The drug loading capacity of the self assemblies was determined using high performance liquid chromatography (HPLC). […] The samples were diluted with mobile phase and 20 μl was injected onto the column, the resultant peak at 7 mins was analysed.

[2] = cited from earlier work
Caco-2 cells = test: MTT assay on Caco-2 cells; type: cell-based
Method: The cytotoxicity of the modified PAA polymers was determined using the MTT assay model. Caco-2 cells were cultured in minimum essential medium (MEM) containing 10% foetal bovine serum (FBS), 1% L-glutamine and 1% non essential amino acids (NEAA).
A 10 mgmL^−1 polymer solution was prepared using sterile water as the diluent. The solution was further diluted with media to form a 0.5 mgmL^−1 stock solution. From the stock solution nine dilutions (0.2-1×10^−4 mgmL^−1) were made using media as the diluent.
Caco-2 cells (200 μL, 10000 cells/well) in exponential growth phases were seeded into a 96-well flat bottomed plate and incubated for 24 h at 37° C. with 5% CO2. The media was replaced with increasing polymer concentrations (0.5-1×10^−4 mgmL^−1) as prepared above. Media and Triton X (1:5 PBS) were the negative and positive controls respectively. The plate was incubated as before. After 24 h the polymer solutions were removed and replaced with fresh media. […] The remaining purple formazan complexes were dissolved in DMSO (200 μL) and L-glycine buffer (25 mL, made up of 3.75 g glycine and 2.93 g NaCl made up in 500 mL and pH adjusted to pH 10.5) and the absorbance of the plates was read at 570 nm using a microplate reader (Ascend Lab-Systems, UK). Percentage cell viability was calculated relative to the positive and negative controls. […]

[3] = Drug loading capacity: solubilisation of prednisolone (HPLC); type: physicochemical
[4] = type: physicochemical; remark: listed apart in the source
Method: Polymer solutions of 1 […] 6 mgmL^-1 were made up in deionised water and probe sonicated for 10 mins to ensure homogeneity. […] A reverse phase Phenomenex C18 250 mm×46 mm×5 μm HPLC column was used with flow rate of 1 mlmin^-1 of the mobile phase (45:55 acetonitrile:45 mM potassium dihydrogen phosphate made up in water and pH adjusted to pH3 with orthophosphoric acid) in an isocratic mode.

[5] = type: physicochemical; remark: listed apart in the source
Method: (§1) Polymer solutions of 1 mgmL^−1, 3 mgmL^−1 and 6 mgmL^−1 were made up in deionised water and probe sonicated for 10 mins to ensure homogeneity. The hydrophobic drug was added in 1:1, 5:1 and 10:1 drug:excipient ratios and the drug-polymer solutions were probe sonicated for a further 10 mins to ensure maximum encapsulation was achieved. After cooling to room temperature, the solutions were filtered using 0.45 μm GDX PVDF syringe filters to ensure any excess unencapsulated propofol was removed.
A reverse phase Zorbax ODS 250 mm×46 mm×5 […] HPLC column was used with flow rate of 1 mlmin^−1 of the mobile phase (40:3:57 methanol:acetonitrile:water) in an isocratic mode. […] The samples were diluted with mobile phase and 20 μl was injected onto the column, the resultant peak at 20 mins was analysed. The drug content was determined by comparing to a calibration carried out on etoposide dissolved in methanol (31.3-500 μgmL^−1).

[6] = type: physicochemical; remark: listed apart in the source
Method: as §1
The BNIPDaoct content in self assemblies was carried out using reverse phase Zorbax ODS 250 mm×46 mm×5 […] HPLC column was used with flow rate of 1 mlmin^−1 of the mobile phase (55:45 buffer:acteonitrile) in an isocratic mode. The buffer was made up of 0.4 g octane sulfonic acid and anhydrous sodium acetate made up to 200 ml with deionised water, the solution was pH adjusted to pH4.5. The column eluent was monitored using a fluorescent Detector. The samples were diluted with mobile phase and 20 μl was injected onto the column, the resultant peak at 10 mins was analysed. A calibration was carried out by dissolving BNIPDaoct in DMSO:water (50:50 v/v) (39-625 μgmL^−1).

HEK 293 cells = test: MTT assay on HEK 293 cells; type: cell-based, Human; conditions: for IC50: Homo sapiens
Method: The safety profile of various drugs and nano-aggregates of the drugs and polymers were investigated using the standard colorimetric MTT (3-(4,5-Dimethylthiazol-2-yl)-2,5-diphenyltetrazolium bromide) assay.
An MTT assay was carried out using Caco-2 and HEK cells. Caco-2 cells were cultured as previously described. HEK cells were cultured in Dulbecco's minimum essential medium (DMEM) containing 10% FBS and 1% penicillin streptomycin (Penstrep).
Polymeric self-assemblies were formed by probe sonicating the polymers in sterile water (5 mgmL^−1). The polymer stock solutions were diluted to 0.005 mgmL^−1 with media. Etoposide stock solution (20 mgmL^−1) was prepared by diluting the drug in DMSO. The formulations were prepared by addition of drug into 0.005 mgmL^−1 polymer solution.

[7] = Aqueous solubility of model hydrophobic drugs; type: physicochemical

5-Dimethylamino-1-naphthalenesulfonyl-PAA [Dansyl5]
maximum concentration of propofol solubilised [1]: 22.4 mgmL^−1

CC(C)c1cccc(C(C)C)c1O [Propofol, 2,6-diisopropylphenol]
aqueous solubility ([2]; 25° C.): 100 µg/mL (≈ 561 µM)
aqueous solubility ([2]; value used for fold increase): 0.1 mgmL^−1

COC1=CC(=O)C[C@@H](C)[C@]12Oc1c(Cl)c(OC)cc(OC)c1C2=O [Griseofulvin, (2S)-trans-7-chloro-2′,4,6-trimethoxy 6′-methylspiro(benzofuran-2[3H],1′-[2]cyclohexene)3,4′-dione]
aqueous solubility ([2]; 25° C.): 30 µg/mL (≈ 85 µM)
aqueous solubility ([2]; value used for fold increase): 0.03 mgmL^−1

Cholesterol-PAA [Ch5]
Number of fold more cytotoxic compared to IC50 of PAA (Caco-2 cells): −1.61
maximum concentration of prednisolone solubilised [3]: 7.05 mgmL^−1
Concentration of Griseofulvin solubilised [4]: 1.2 mgmL^−1
Excipient:Drug Ratio after solubilisation [4]: 5.00
Increase from aqueous solubility [4]: 40 Fold
Concentration of Etoposide solubilised [5]: 1.020 (0.040) mgmL^−1
Excipient:Drug Ratio after solubilisation [5]: 5.88
Increase from aqueous solubility [5]: 7 Fold
Concentration of BNIPDaoct solubilised [6]: 0.3 mgmL^−1
Excipient:Drug Ratio after solubilisation [6]: 3.33

5-Dimethylamino-1-naphthalenesulfonyl-PAA [Dansyl10]
Increase from aqueous solubility [4]: 557 Fold
Concentration of Etoposide solubilised [5]: 1.890 (0.011) mgmL^−1

COc1cc([C@@H]2c3cc4c(cc3[C@@H](O[C@@H]3O[C@@H]5CO[C@@H](C)O[C@H]5[C@H](O)[C@H]3O)[C@H]3COC(=O)[C@H]23)OCO4)cc(OC)c1O [Etoposide]
IC50 (HEK 293 cells; HEK293, read-out: IC50 (n = 3 ± SD), HEK 293 cells, IC50 of the polymer was used in the formulations): 2.48 µg/mL (≈ 4.21 µM)
IC50 (HEK 293 cells; HEK293, IC90 of the polymer used in the formulations (5 μgmL^−1), read-out: IC50 on HEK 293 cells): 2.5 µg/mL (≈ 4.25 µM)
IC50 (Caco-2 cells; Homo sapiens, Caco-2, read-out: IC50 on Caco-2 cells): 190 µg/mL (≈ 323 µM)
aqueous solubility ([2]; 37° C.): 148 to 153 µg/mL
aqueous solubility ([2]; value used for fold increase): 0.15 mgmL^−1

O=C1c2cccc3cccc(c23)C(=O)N1CCCNCCCCCCCCNCCCN1C(=O)c2cccc3cccc(c23)C1=O [BNIPDaoct, Bisnahthalimidopropyldiaminooctane]
IC50 (n = 3 ± SD) (HEK 293 cells; HEK 293 cells, IC50 of the polymer was used in the formulations): 0.00496 (0.00005) mgmL^−1
aqueous solubility (in words) [7]: negligible
